The NIST ThermoML archive (doi:10.1021/je400134d)

Test: xn = mol fraction of the nth substance listed
Conditions: 100 kPa, Liquid; for speed of sound: Pulse-echo method; for mass density: Vibrating tube method

CNc1ccccc1 [N-methylaniline] + CCCCCCC
Conditions | mass density [kg/m3] | speed of sound [m/s]
293.15 K, x1 = 0.054 | 695.999 | 1164.1
293.15 K, x1 = 0.1084 | 708.778 | 1177.2
293.15 K, x1 = 0.1536 | 719.814 | 1188.4
293.15 K, x1 = 0.2 | 731.341 | 1200
293.15 K, x1 = 0.2556 | 745.704 | 1214.5
293.15 K, x1 = 0.2976 | 756.81 | 1226.1
293.15 K, x1 = 0.3473 | 770.261 | 1240.6
293.15 K, x1 = 0.3944 | 783.41 | 1255.2
293.15 K, x1 = 0.4485 | 798.879 | 1273.5
293.15 K, x1 = 0.4953 | 812.615 | 1291
293.15 K, x1 = 0.5355 | 824.725 | 1306.9
293.15 K, x1 = 0.599 | 844.458 | 1335
293.15 K, x1 = 0.6436 | 858.711 | 1356.6
293.15 K, x1 = 0.7024 | 878.07 | 1387.7
293.15 K, x1 = 0.7457 | 892.769 | 1412.5
293.15 K, x1 = 0.7858 | 906.675 | 1436.7
293.15 K, x1 = 0.8459 | 928.153 | 1474.7
293.15 K, x1 = 0.8952 | 946.22 | 1507.9
293.15 K, x1 = 0.9491 | 966.608 | 1545.5
298.15 K, x1 = 0.0577 | 692.58 | 1143.9
298.15 K, x1 = 0.1072 | 704.27 | 1156.2
298.15 K, x1 = 0.1473 | 713.999 | 1166.3
298.15 K, x1 = 0.2055 | 728.558 | 1181.4
298.15 K, x1 = 0.2595 | 742.491 | 1193.9
298.15 K, x1 = 0.3033 | 754.107 | 1208.3
298.15 K, x1 = 0.3401 | 764.024 | 1219.2
298.15 K, x1 = 0.3955 | 779.471 | 1236.7
298.15 K, x1 = 0.4559 | 796.765 | 1257.6
298.15 K, x1 = 0.503 | 810.692 | 1275.5
298.15 K, x1 = 0.5431 | 822.843 | 1291.9
298.15 K, x1 = 0.5956 | 839.178 | 1315.3
298.15 K, x1 = 0.6441 | 854.671 | 1338.8
298.15 K, x1 = 0.6995 | 872.931 | 1368.1
298.15 K, x1 = 0.7491 | 889.715 | 1396.2
298.15 K, x1 = 0.7964 | 906.279 | 1425.1
298.15 K, x1 = 0.8446 | 923.55 | 1455.9
298.15 K, x1 = 0.8949 | 942.036 | 1489.6
298.15 K, x1 = 0.9465 | 961.528 | 1525.6
303.15 K, x1 = 0.0615 | 689.386 | 1124.9
303.15 K, x1 = 0.1111 | 701.082 | 1137.5
303.15 K, x1 = 0.1548 | 711.723 | 1148.8
303.15 K, x1 = 0.2069 | 724.76 | 1162.6
303.15 K, x1 = 0.2501 | 735.88 | 1174.4
303.15 K, x1 = 0.2964 | 748.035 | 1187.5
303.15 K, x1 = 0.348 | 762.057 | 1203.2
303.15 K, x1 = 0.3979 | 775.964 | 1219.2
303.15 K, x1 = 0.4513 | 791.356 | 1238
303.15 K, x1 = 0.5003 | 805.793 | 1256.5
303.15 K, x1 = 0.5583 | 823.48 | 1280.8
303.15 K, x1 = 0.5988 | 836.196 | 1299.2
303.15 K, x1 = 0.647 | 851.618 | 1322.6
303.15 K, x1 = 0.7026 | 869.963 | 1351.9
303.15 K, x1 = 0.7475 | 885.221 | 1377.4
303.15 K, x1 = 0.7954 | 901.919 | 1406.3
303.15 K, x1 = 0.8446 | 919.525 | 1437.5
303.15 K, x1 = 0.8917 | 936.846 | 1468.8
303.15 K, x1 = 0.9404 | 955.244 | 1502.4

CNc1ccccc1 [N-methylaniline] + Cc1ccccc1
Conditions | mass density [kg/m3] | speed of sound [m/s]
293.15 K, x1 = 0.0541 | 873.9 | 1339.3
293.15 K, x1 = 0.0986 | 879.611 | 1350.5
293.15 K, x1 = 0.1502 | 886.145 | 1363.2
293.15 K, x1 = 0.1989 | 892.268 | 1375.1
293.15 K, x1 = 0.2473 | 898.297 | 1387
293.15 K, x1 = 0.2982 | 904.623 | 1399.7
293.15 K, x1 = 0.35 | 910.972 | 1412.6
293.15 K, x1 = 0.3898 | 915.862 | 1422.7
293.15 K, x1 = 0.446 | 922.654 | 1436.8
293.15 K, x1 = 0.4872 | 927.615 | 1447.3
293.15 K, x1 = 0.5426 | 934.227 | 1461.5
293.15 K, x1 = 0.5859 | 939.349 | 1472.7
293.15 K, x1 = 0.6441 | 946.179 | 1487.8
293.15 K, x1 = 0.6894 | 951.429 | 1499.7
293.15 K, x1 = 0.7385 | 957.096 | 1512.7
293.15 K, x1 = 0.7823 | 962.1 | 1524.3
293.15 K, x1 = 0.8377 | 968.392 | 1539.6
293.15 K, x1 = 0.8834 | 973.522 | 1551.3
293.15 K, x1 = 0.9299 | 978.698 | 1563.7
298.15 K, x1 = 0.0532 | 869.146 | 1317.9
298.15 K, x1 = 0.0998 | 875.098 | 1329.6
298.15 K, x1 = 0.1518 | 881.77 | 1342.7
298.15 K, x1 = 0.1906 | 886.675 | 1352.4
298.15 K, x1 = 0.2452 | 893.525 | 1366
298.15 K, x1 = 0.2887 | 898.955 | 1377
298.15 K, x1 = 0.3417 | 905.492 | 1390.3
298.15 K, x1 = 0.39 | 911.437 | 1402.7
298.15 K, x1 = 0.4434 | 917.945 | 1416.3
298.15 K, x1 = 0.49 | 923.58 | 1428.3
298.15 K, x1 = 0.5415 | 929.747 | 1441.7
298.15 K, x1 = 0.5792 | 934.236 | 1451.5
298.15 K, x1 = 0.6432 | 941.787 | 1468.4
298.15 K, x1 = 0.6868 | 946.88 | 1479.9
298.15 K, x1 = 0.7407 | 953.128 | 1494.3
298.15 K, x1 = 0.7823 | 957.907 | 1505.4
298.15 K, x1 = 0.8378 | 964.233 | 1520.4
298.15 K, x1 = 0.8844 | 969.501 | 1533
298.15 K, x1 = 0.934 | 975.057 | 1546.4
303.15 K, x1 = 0.053 | 864.574 | 1297.3
303.15 K, x1 = 0.0982 | 870.409 | 1308.8
303.15 K, x1 = 0.1501 | 877.091 | 1321.9
303.15 K, x1 = 0.1929 | 882.501 | 1332.7
303.15 K, x1 = 0.2456 | 889.168 | 1346.1
303.15 K, x1 = 0.2837 | 893.953 | 1355.7
303.15 K, x1 = 0.3444 | 901.518 | 1371.2
303.15 K, x1 = 0.3919 | 907.37 | 1383.4
303.15 K, x1 = 0.4478 | 914.21 | 1397.8
303.15 K, x1 = 0.4918 | 919.549 | 1409.3
303.15 K, x1 = 0.5391 | 925.243 | 1421.7
303.15 K, x1 = 0.5886 | 931.18 | 1434.7
303.15 K, x1 = 0.6395 | 937.212 | 1448.2
303.15 K, x1 = 0.6846 | 942.503 | 1460.2
303.15 K, x1 = 0.7398 | 948.933 | 1475
303.15 K, x1 = 0.7782 | 953.381 | 1485.3
303.15 K, x1 = 0.842 | 960.67 | 1502.3
303.15 K, x1 = 0.879 | 964.897 | 1512.7
303.15 K, x1 = 0.934 | 971.087 | 1527.6
